Source: ChEMBL document CHEMBL5523725, “Fragment-Based Anti-inflammatory Agent Design and Target Identification: Discovery of AF-45 as an IRAK4 Inhibitor to Treat Ulcerative Colitis and Acute Lung Injury” (J Med Chem, 2024)
Active and inactive are the calls of the source. The calls are words filed in the database; no cut-off is given here.

What was measured:
Mus musculus [1] = assay: Antiinflammatory activity in male C57BL/6 mouse model of DSS-induced ulcerative colitis assessed as reduction in macrophage infiltration in colon at 10 to 20 mg/kg, po administered for 11 days with subsequent administration of DSS for 8 days by F4/80 labeling based immunohistochemistry analysis; assay type: functional, organism-based; conditions: dose 10-20 mg/kg, time 11.0 day
[2] = Half life in male Sprague-Dawley rat at 1 mg/kg, iv administered via tail vein and measured upto 24 hrs; assay type: ADME, organism-based; conditions: in vivo
[3] = Stability of compound in enzyme-free simulated gastric fluid at 10 mg/ml incubated for 8 hrs and measured every 2 hrs hy HPLC analysis; assay type: ADME; conditions: simulated gi fluid
[4] = Clearance in male Sprague-Dawley rat at 10 mg/kg, po measured upto 24 hrs; assay type: ADME, organism-based; conditions: in vivo
RAW264.7 [5] = assay: cells; conditions: Mus musculus
Description: Antiinflammatory activity in LPS-induced mouse RAW264.7 cells assessed as inhibition of IL-6 release pretreated for 30 mins followed by LPS stimulation and measured after 24 hrs by ELISA

[6] = test system: Tyrosine-protein kinase ABL1 (Homo sapiens), P00519 [T315I]; assay: Inhibition of human ABL […] mutant assessed as residual activity at 10 uM by Eurofins kinase profiler method relative to control
RAW264.7 [7] = assay: Inhibition of NFkappaB/MAPK signaling pathway in mouse RAW264.7 cells assessed as reduction in LPS-induced p38 phosphorylation at 50 uM by Western blot analysis; assay type: cell-based
[8] = Stability of compound in simulated intestinal fluid at 10 mg/ml incubated for 8 hrs and measured every 2 hrs hy HPLC analysis; assay type: ADME; conditions: simulated gi fluid
RAW264.7 [9] = assay: Antiinflammatory activity in LPS-induced mouse RAW264.7 cells assessed as inhibition of IL-6 release at 10 uM pretreated for 30 mins followed by LPS stimulation and measured after 24 hrs by ELISA relative to control; assay type: functional; conditions: time 24.5 hrs
[10] = Tmax in male Sprague-Dawley rat at 10 mg/kg, po measured upto 24 hrs; assay type: ADME, organism-based; conditions: in vivo
[11] = Half life in male Sprague-Dawley rat at 10 mg/kg, po measured upto 24 hrs; assay type: ADME, organism-based; conditions: in vivo
[12] = AUC (0 to t) in male Sprague-Dawley rat at 10 mg/kg, po measured upto 24 hrs; assay type: ADME, organism-based; conditions: in vivo
Mus musculus [13] = assay: Antiinflammatory activity in LPS induced C57BL/6 mouse model of acute lung injury assessed as reduction in inflammatory exudation in lung at 20 mg/kg, ip preadministered for 30 mins followed by LPS administration and measured after 6 hrs by H and E staining based analysis; assay type: functional, organism-based; conditions: time 6.5 hrs
Mus musculus [14] = assay: Antiinflammatory activity in male C57BL/6 mouse model of DSS-induced ulcerative colitis assessed as reduction in IL-6 level in serum at 20 mg/kg, po administered for 11 days with subsequent administration of DSS for 8 days by ELISA; assay type: functional, organism-based; conditions: time 11.0 day
Mus musculus [15] = assay: Antiinflammatory activity in male C57BL/6 mouse model of DSS-induced ulcerative colitis assessed as reversal of invisible pulp structure at 10 to 20 mg/kg, po administered for 11 days with subsequent administration of DSS for 8 days by H and E staining based analysis; assay type: functional, organism-based; conditions: dose 10-20 mg/kg, time 11.0 day
Mus musculus [16] = assay: Antiinflammatory activity in LPS induced C57BL/6 mouse model of acute lung injury assessed as inhibition of TNFalpha release in serum at 20 to 40 mg/kg, ip preadministered for 30 mins followed by LPS administration and measured after 6 hrs by ELISA; assay type: functional, organism-based; conditions: dose 20-40 mg/kg, time 6.5 hrs
RAW264.7 [17] = assay: cells; conditions: Mus musculus; remark: listed apart in the source
Description: Antiinflammatory activity in LPS-induced mouse RAW264.7 cells assessed as inhibition of TNF-alpha release pretreated for 30 mins followed by LPS stimulation and measured after 24 hrs by ELISA

Mus musculus [18] = assay: Antiinflammatory activity in male C57BL/6 mouse model of DSS-induced ulcerative colitis assessed as reduction in colonic structure destruction at 10 to 20 mg/kg, po administered for 11 days with subsequent administration of DSS for 8 days by H and E staining based analysis; assay type: functional, organism-based; conditions: dose 10-20 mg/kg, time 11.0 day
Mus musculus [19] = assay: In vivo binding affinity to IRAK4 in DSS-induced ulcerative colitis C57BL/6 mouse colon assessed as thermal stabilization at 10 to 20 mg/kg, po administered for 11 days with subsequent administration of DSS for 8 days by CETSA; assay type: functional, organism-based; conditions: dose 10-20 mg/kg, time 11.0 day
Mus musculus [20] = assay: Antiinflammatory activity in male C57BL/6 mouse model of DSS-induced ulcerative colitis assessed as reduction in spleen to body weight ratio at 10 to 20 mg/kg, po administered for 11 days with subsequent administration of DSS for 8 days; assay type: functional, organism-based; conditions: dose 10-20 mg/kg, time 11.0 day
[21] = target: Interleukin-1 receptor-associated kinase 1 (Homo sapiens, UniProt P51617); assay: Inhibition of IRAK1 (unknown origin) at 10 uM relative to control
[22] = target: T1, Lymphocyte antigen 96 (Mus musculus) (UniProt Q9JHF9); assay: Thermal stabilization of MD2 in mouse RAW264.7 cells assessed as reduction in decomposition at 10 uM at 45 to 51 degreeC measured after 4 hrs by CETSA; assay type: cell-based
T1 sequence (whole entry): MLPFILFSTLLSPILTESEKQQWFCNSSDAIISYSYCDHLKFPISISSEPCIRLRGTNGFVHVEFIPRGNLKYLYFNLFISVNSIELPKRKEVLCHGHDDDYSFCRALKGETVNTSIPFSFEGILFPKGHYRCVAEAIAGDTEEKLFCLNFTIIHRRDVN

Mus musculus [23] = assay: Antiinflammatory activity in LPS induced C57BL/6 mouse model of acute lung injury assessed as reduction in white pulp fusion at 20 to 40 mg/kg, ip preadministered for 30 mins followed by LPS administration and measured after 6 hrs by H and E staining based analysis; assay type: functional, organism-based; conditions: dose 20-40 mg/kg, time 6.5 hrs
[24] = Cmax in male Sprague-Dawley rat at 10 mg/kg, po measured upto 24 hrs; assay type: ADME, organism-based; conditions: in vivo
Mus musculus [25] = assay: Antiinflammatory activity in LPS induced C57BL/6 mouse model of acute lung injury assessed as inhibition of TNFalpha release in BALF at 20 to 40 mg/kg, ip preadministered for 30 mins followed by LPS administration and measured after 6 hrs by ELISA; assay type: functional, organism-based; conditions: dose 20-40 mg/kg, time 6.5 hrs
[26] = target: Cyclin-dependent kinase 16 (Homo sapiens) (UniProt Q00536); assay: Inhibition of human PCTAIREI assessed as residual activity at 10 uM by Eurofins kinase profiler method relative to control
[27] = Clearance in male Sprague-Dawley rat at 1 mg/kg, iv administered via tail vein and measured upto 24 hrs; assay type: ADME, organism-based; conditions: in vivo
Mus musculus [28] = assay: Anti-colitis activity in male C57BL/6 mouse model of DSS-induced ulcerative colitis assessed as colon length at 10 mg/kg, po administered for 11 days with subsequent administration of DSS for 8 days (reference value: 5.2 cm); assay type: functional; conditions: time 11 day
Mus musculus [29] = assay: Antiinflammatory activity in LPS induced C57BL/6 mouse model of acute lung injury assessed as inhibition of IL-6 release in serum at 20 to 40 mg/kg, ip preadministered for 30 mins followed by LPS administration and measured after 6 hrs by ELISA; assay type: functional, organism-based; conditions: dose 20-40 mg/kg, time 6.5 hrs
Mus musculus [30] = assay: Antiinflammatory activity in LPS induced C57BL/6 mouse model of acute lung injury assessed as inhibition of IL-6 release in BALF at 20 to 40 mg/kg, ip preadministered for 30 mins followed by LPS administration and measured after 6 hrs by ELISA; assay type: functional, organism-based; conditions: dose 20-40 mg/kg, time 6.5 hrs
Mus musculus [31] = assay: Antiinflammatory activity in male C57BL/6 mouse model of DSS-induced ulcerative colitis assessed as preservation of goblet cells at 10 to 20 mg/kg, po administered for 11 days with subsequent administration of DSS for 8 days by H and E staining based analysis; assay type: functional, organism-based; conditions: dose 10-20 mg/kg, time 11.0 day

Cyclin-dependent kinase 16 (Homo sapiens), sequence (Q00536 whole entry): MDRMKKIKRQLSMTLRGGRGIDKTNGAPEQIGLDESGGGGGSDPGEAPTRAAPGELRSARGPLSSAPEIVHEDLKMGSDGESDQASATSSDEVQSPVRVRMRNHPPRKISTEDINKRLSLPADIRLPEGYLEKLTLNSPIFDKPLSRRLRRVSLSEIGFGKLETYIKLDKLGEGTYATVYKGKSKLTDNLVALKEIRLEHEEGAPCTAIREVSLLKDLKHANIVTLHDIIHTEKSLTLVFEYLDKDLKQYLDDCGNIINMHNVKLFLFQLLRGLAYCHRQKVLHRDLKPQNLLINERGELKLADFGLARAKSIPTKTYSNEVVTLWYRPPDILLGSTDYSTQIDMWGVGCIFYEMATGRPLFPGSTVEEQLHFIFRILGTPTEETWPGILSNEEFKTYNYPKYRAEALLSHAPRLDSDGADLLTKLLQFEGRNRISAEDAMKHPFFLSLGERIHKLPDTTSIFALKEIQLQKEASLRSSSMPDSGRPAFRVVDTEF
Interleukin-1 receptor-associated kinase 1, sequence (P51617 whole entry, looked up): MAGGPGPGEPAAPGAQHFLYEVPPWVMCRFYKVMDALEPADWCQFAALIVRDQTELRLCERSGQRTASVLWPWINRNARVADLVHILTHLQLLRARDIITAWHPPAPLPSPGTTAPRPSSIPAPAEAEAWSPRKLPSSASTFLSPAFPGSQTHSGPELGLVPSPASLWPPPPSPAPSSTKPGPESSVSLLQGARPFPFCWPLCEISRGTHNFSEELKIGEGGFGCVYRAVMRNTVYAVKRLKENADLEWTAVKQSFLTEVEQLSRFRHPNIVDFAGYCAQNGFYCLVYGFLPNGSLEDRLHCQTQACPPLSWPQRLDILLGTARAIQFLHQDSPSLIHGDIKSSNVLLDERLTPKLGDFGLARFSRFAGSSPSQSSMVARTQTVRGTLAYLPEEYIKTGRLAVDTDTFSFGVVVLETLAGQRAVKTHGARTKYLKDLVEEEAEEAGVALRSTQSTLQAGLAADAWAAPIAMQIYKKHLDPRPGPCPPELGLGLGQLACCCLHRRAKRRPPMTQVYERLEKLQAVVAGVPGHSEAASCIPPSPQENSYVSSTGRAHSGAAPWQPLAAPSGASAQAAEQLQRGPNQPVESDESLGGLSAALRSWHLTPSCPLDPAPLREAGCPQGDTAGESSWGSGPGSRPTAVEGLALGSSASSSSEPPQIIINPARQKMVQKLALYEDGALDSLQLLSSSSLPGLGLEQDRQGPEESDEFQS

## COc1cc2c(O[C@H]3CC[C@@H](N)CC3)ncnc2cc1OCc1ccccc1
Mus musculus [1]
  Activity: Active
[2]
  half-life: 2.8 h
[3]
  Stability: Stable
[4]
  CL: 0.089 L/h/kg
RAW264.7 [5]
  IC50: 1.27 µM
[6]
  Activity: 70%
RAW264.7 [7]
  inhibition: Active
[8]
  Stability: Stable
RAW264.7 [9]
  inhibition at 10 µM: 92.4%
[10]
  Tmax: 3 h
[11]
  half-life: 5.6 h
[12]
  AUCt: 10.6536 µg·h/mL
Mus musculus [13]
  Activity: Active
Mus musculus [14]
  Activity: Active
Mus musculus [15]
  Activity: Active
Mus musculus [16]
  Activity: Active
RAW264.7 [17]
  IC50: 2.6 µM
Mus musculus [18]
  Activity: Active
Mus musculus [19]
  Activity: Active
Mus musculus [20]
  Activity: Active
[21]
  inhibition: 87%
[22]
  Activity: inactive
Mus musculus [23]
  Activity: Active
[24]
  Cmax: 1.25 µg/mL
Mus musculus [25]
  Activity: Active
[26]
  Activity: 70%
[27]
  clearance: 0.23 L/h/kg
Mus musculus [28]
  Activity: 5.9 cm
Mus musculus [29]
  Activity: Active
Mus musculus [30]
  Activity: Active
Mus musculus [31]
  Activity: Active
